Calls of active or inactive are those of the source. The calls are words filed in the database; no cut-off is given here.
Assays:
Mus musculus [1] = test: Anti osteoporosis in 16 months old C57 mouse assessed as reconstruction of bone microstructure administered at 30 mg/kg/day, IG continuously for 4 months by micro CT analysis relative to young control group; format: functional, organism-based
Mus musculus [2] = test: Anti osteoporosis in 16 months old C57 mouse assessed as increase in bone mass administered at 30 mg/kg/day, IG continuously for 2 months by micro CT analysis relative to young control group; format: functional, organism-based
[3] = Toxicity in 16 months old C57 mouse assessed as change in creatinine level administered at 30 mg/kg/day, IG continuously for 4 months; format: organism-based; settings: in vivo, po, 2920 h
[4] = Toxicity in 16 months old C57 mouse assessed as change in triglyceride level administered at 30 mg/kg/day, IG continuously for 4 months; format: organism-based; settings: in vivo, po, 2920 h
[5] = Toxicity in 2.5 months old SAMP-6 rapid aging mouse model assessed as morphological change in liver administered at 30 mg/kg/day, IG continuously for 3 months by hematoxylin and eosin staining analysis; format: organism-based; settings: in vivo, po, 2190 h
Mus musculus [6] = test: Anti osteoporosis in 16 months old C57 mouse assessed as monocyte level in femur administered at 30 mg/kg/day, IG continuously for 4 months by scRNA-seq analysis (reference value: 12.2%); format: functional; settings: 2920 h
Mus musculus [7] = test: Anti osteoporosis in 16 months old C57 mouse assessed as myeloid progenitor level in femur administered at 30 mg/kg/day, IG continuously for 4 months by scRNA-seq analysis (reference value: 2.18%); format: functional; settings: 2920 h
Mus musculus [8] = test: Anti osteoporosis in 16 months old C57 mouse assessed as dendritic cell level in femur administered at 30 mg/kg/day, IG continuously for 4 months by scRNA-seq analysis (reference value: 1.34%); format: functional; settings: 2920 h
Osteoblast = test: Upregulation of transcription factor PSMD12 expression in 16 months old C57 mouse osteoblast by scRNA-seq analysis; format: functional, cell-based

For `COc1ccc2cc(C(=O)NCCN(C)C)oc2c1.CS(=O)(=O)O`, the Activity (Mus musculus [1]) was “Active”, the Activity (Mus musculus [2]) was “inactive” and the Activity [3] was “Non-Toxic”. The Activity [4] was “Non-Toxic”, the Activity [5] was “Non-Toxic” and the Activity (Mus musculus [6]) was 4.94%. For the same compound, the Activity (Mus musculus [7]) was 0.32%, the Activity (Mus musculus [8]) was 0.68% and the Activity (Osteoblast) was “Active”.

Source: ChEMBL document CHEMBL5380777, “Efficacy, Mechanism, and Structure-Activity Relationship of 6-Methoxy Benzofuran Derivatives as a Useful Tool for Senile Osteoporosis” (J Med Chem, 2023)
